This assay has as its target human adenosine A2b receptor (Homo sapiens (Human), UniProt P29275). The assay is described as follows: Cellular in vitro reporter gene test for A2b receptor activity (CHO-K1, CRE-luciferase, NECA stimulation). The note with it: recombinant CHO-K1 cell line, CRE-luciferase reporter, antagonism of EC50 concentration of NECA; in some cases means of several determinations, rounded to two significant figures; read-out: A2b receptor IC50. The assay is classed as cell-based. Here is the method: B-1. Cellular In Vitro Tests for Determining A2b Receptor Activity and Adenosine Receptor Selectivity
In the case of the A2a and A2b cell lines, this is a minimal promoter having a plurality of cAMP-responsive elements (CRE). Stimulation of the Gs-coupled A2b or A2a receptors by NECA ultimately leads, via formation of cAMP, to CRE-dependent induction of luciferase expression, which is detected 3 hours after the start of the incubation with NECA using a detection solution in a suitable luminometer. For testing the antagonists, initially, in a pre-experiment, the concentration of NECA which, at the test day in question, results in half-maximum stimulation of luciferase expression (EC50 concentration) is determined. By joint incubation of this EC50 concentration of NECA with the substances to be tested, it is possible to determine their antagonistic activity.
(Reporter assays use an easily measured gene product as a stand-in for the process of interest.)

pIC50: −log10 of the molar value.

The term pIC50 denotes the IC50 on a negative log10 scale, so that one unit is a factor of ten.

Sequence of human adenosine A2b receptor (P29275 whole entry): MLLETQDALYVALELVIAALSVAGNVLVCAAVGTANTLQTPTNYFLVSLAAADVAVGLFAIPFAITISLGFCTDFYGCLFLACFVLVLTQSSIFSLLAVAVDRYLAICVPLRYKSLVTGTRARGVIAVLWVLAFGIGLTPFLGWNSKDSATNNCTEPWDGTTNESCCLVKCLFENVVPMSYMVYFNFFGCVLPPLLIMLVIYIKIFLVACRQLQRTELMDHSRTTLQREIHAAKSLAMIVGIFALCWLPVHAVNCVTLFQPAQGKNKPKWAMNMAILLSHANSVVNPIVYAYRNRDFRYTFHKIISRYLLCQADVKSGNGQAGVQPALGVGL

Regarding `CCn1c(=O)c2c(C)c(CN3CCC(C)C3=O)sc2n(CCC(F)(F)F)c1=O` (racemic) [Example 6, 3-Ethyl-5-methyl-6-[(3-methyl-2-oxopyrrolidin-1-yl)methyl]-1-(3,3,3-trifluoropropyl)thieno[2,3-d]pyrimidine-2,4(1H,3H)-dione (racemate)], the negative-log IC50 (pIC50) was 8.10. For `CCn1c(=O)c2c(C)c(CN3CC(NC(=O)OC(C)(C)C)CC3=O)sc2n(CCC(F)(F)F)c1=O` (racemic) [Example 8, tert-Butyl (1-{[3-ethyl-5-methyl-2,4-dioxo-1-(3,3,3-trifluoropropyl)-1,2,3,4-tetrahydrothieno[2,3-d]pyrimidin-6-yl]methyl}-5-oxopyrrolidin-3-yl)carbamate (racemate)], the negative logarithm of the IC50 (pIC50) was 6.92.

`CCn1c(=O)c2c(C)c(CN3CC(N)CC3=O)sc2n(CCC(F)(F)F)c1=O` (racemic) [Example 9, 6-[(4-Amino-2-oxopyrrolidin-1-yl)methyl]-3-ethyl-5-methyl-1-(3,3,3-trifluoropropyl)thieno[2,3-d]pyrimidine-2,4(1H,3H)-dione (racemate)]: the pIC50 is 7.01. To `CCn1c(=O)c2c(C)c(CN3C(=O)CCC3C)sc2n(CCC(F)(F)F)c1=O` (racemic) [Example 10, 3-Ethyl-5-methyl-6-[(2-methyl-5-oxopyrrolidin-1-yl)methyl]-1-(3,3,3-trifluoropropyl)thieno[2,3-d]pyrimidine-2,4(1H,3H)-dione (racemate)] belongs 8.15. Take `CCn1c(=O)c2c(C)c(CN3CCNC3=S)sc2n(CC2CCO2)c1=O` (racemic) [Example 34, 3-Ethyl-5-methyl-1-(oxetan-2-ylmethyl)-6-[(2-thioxoimidazolidin-1-yl)methyl]thieno[2,3-d]pyrimidine-2,4(1H,3H)-dione (racemate)]: the pIC50 is 8.00. `CCn1c(=O)c2c(C)c(CN3CCNC3=S)sc2n(CC2CCCO2)c1=O` (racemic) [Example 35, 3-Ethyl-5-methyl-1-(tetrahydrofuran-2-ylmethyl)-6-[(2-thioxoimidazolidin-1-yl)methyl]thieno[2,3-d]pyrimidine-2,4(1H,3H)-dione (racemate)]: the pIC50 was 8.20. Regarding `CCn1c(=O)c2c(C)c(CN3CCNC3=S)sc2n(CC2CCCCO2)c1=O` (racemic) [Example 36, 3-Ethyl-5-methyl-1-(tetrahydro-2H-pyran-2-ylmethyl)-6-[(2-thioxoimidazolidin-1-yl)methyl]thieno[2,3-d]pyrimidine-2,4(1H,3H)-dione (racemate)], the pIC50 is 7.42.

On to `CCn1c(=O)c2c(C)c(CN3CCNC3=O)sc2n(CC2CC2(F)F)c1=O` (racemic) [Example 54, 1-[(2,2-Difluorocyclopropyl)methyl]-3-ethyl-5-methyl-6-[(2-oxoimidazolidin-1-yl)methyl]thieno[2,3-d]pyrimidine-2,4(1H,3H)-dione (racemate)], for which the pIC50 was 8.39. Regarding `CCn1c(=O)c2c(C)c(CN3CCNC3=O)sc2n(CC(C)OC)c1=O` (racemic) [Example 62, 3-Ethyl-1-(2-methoxypropyl)-5-methyl-6-[(2-oxoimidazolidin-1-yl)methyl]thieno[2,3-d]pyrimidine-2,4(1H,3H)-dione (racemate)], the negative-log IC50 (pIC50) is 7.14. To `CCn1c(=O)c2c(C)c(CN3CCNC3=O)sc2n(CC2CCO2)c1=O` (racemic) [Example 65, 3-Ethyl-5-methyl-1-(oxetan-2-ylmethyl)-6-[(2-oxoimidazolidin-1-yl)methyl]thieno[2,3-d]pyrimidine-2,4(1H,3H)-dione (racemate)] belongs 7.92.

Take `CCn1c(=O)c2c(C)c(CN3CCNC3=O)sc2n(CC2CCCO2)c1=O` (racemic) [Example 68, 3-Ethyl-5-methyl-6-[(2-oxoimidazolidin-1-yl)methyl]-1-(tetrahydrofuran-2-ylmethyl)thieno[2,3-d]pyrimidine-2,4(1H,3H)-dione (racemate)]: the pIC50 is 8.05.

For `CCn1c(=O)c2c(C)c(CN3CCNC3=O)sc2n(CC2CCCCO2)c1=O` (racemic) [Example 71, 3-Ethyl-5-methyl-6-[(2-oxoimidazolidin-1-yl)methyl]-1-(tetrahydro-2H-pyran-2-ylmethyl)thieno[2,3-d]pyrimidine-2,4(1H,3H)-dione (racemate)], the pIC50 was 7.15.

As for `CCn1c(=O)c2c(C)c(CN3CCNC3=O)sc2n(CC2CCOC2)c1=O` (racemic) [Example 73, 3-Ethyl-5-methyl-6-[(2-oxoimidazolidin-1-yl)methyl]-1-(tetrahydrofuran-3-ylmethyl)thieno[2,3-d]pyrimidine-2,4(1H,3H)-dione (racemate)], the pIC50 was 7.10. Regarding `Cc1c(CN2CCNC2=O)sc2c1c(=O)n(CC(C)C)c(=O)n2CC1CCOC1` (racemic) [Example 90, 3-Isobutyl-5-methyl-6-[(2-oxoimidazolidin-1-yl)methyl]-1-(tetrahydrofuran-3-ylmethyl)thieno[2,3-d]pyrimidine-2,4(1H,3H)-dione (racemate)], the pIC50 was 7.92. In the case of `COCCn1c(=O)n(CC(C)OC)c(=O)c2c(C)c(CN3CCNC3=O)sc21` (racemic) [Example 99, 1-(2-Methoxyethyl)-3-(2-methoxypropyl)-5-methyl-6-[(2-oxoimidazolidin-1-yl)methyl]thieno[2,3-d]pyrimidine-2,4(1H,3H)-dione] it was 7.77; in that of `CCn1c(=O)c2c(C)c(Cn3ncn(CC(O)CO)c3=O)sc2n(CCOC(F)(F)F)c1=O` (racemic) [Example 115, 6-{[4-(2,3-Dihydroxypropyl)-5-oxo-4,5-dihydro-1H-1,2,4-triazol-1-yl]methyl}-3-ethyl-5-methyl-1-[2-(trifluoromethoxy)ethyl]thieno[2,3-d]pyrimidine-2,4(1H,3H)-dione], 7.51. To `Cc1c(CN2CCNC(=O)C2=O)sc2c1c(=O)n(CC(F)(F)F)c(=O)n2CC1CCO1` (racemic) [Example 123, 6-[(2,3-Dioxopiperazin-1-yl)methyl]-5-methyl-1-(oxetan-2-ylmethyl)-3-(2,2,2-trifluoroethyl)thieno[2,3-d]pyrimidine-2,4(1H,3H)-dione] belongs 7.28; to `CCn1c(=O)c2c(C)c(Cn3[nH]ccc3=O)sc2n(CC2CCCO2)c1=O` (racemic) [Example 129, 3-Ethyl-5-methyl-6-[(5-oxo-2,5-dihydro-1H-pyrazol-1-yl)methyl]-1-(tetrahydrofuran-2-ylmethyl)thieno[2,3-d]pyrimidine-2,4(1H,3H)-dione], 7.72. In the case of `Cc1c(Cn2[nH]ccc2=O)sc2c1c(=O)n(C(C)C)c(=O)n2CC1CCCO1` (racemic) [Example 134, 3-Isopropyl-5-methyl-6-[(5-oxo-2,5-dihydro-1H-pyrazol-1-yl)methyl]-1-(tetrahydrofuran-2-ylmethyl)thieno[2,3-d]pyrimidine-2,4(1H,3H)-dione] it was 7.52; in that of `Cc1c(CN2CCNC2=S)sc2c1c(=O)n(CC(C)C)c(=O)n2CC1CCO1` (racemic) [Example 146, 3-Isobutyl-5-methyl-1-(oxetan-2-ylmethyl)-6-[(2-thioxoimidazolidin-1-yl)methyl]thieno[2,3-d]pyrimidine-2,4(1H,3H)-dione], 7.96.

Consider `Cc1c(CN2CCNC2=S)sc2c1c(=O)n(CC(F)(F)F)c(=O)n2CC1CCO1` (racemic) [Example 154, 5-Methyl-1-(oxetan-2-ylmethyl)-6-[(2-thioxoimidazolidin-1-yl)methyl]-3-(2,2,2-trifluoroethyl)thieno[2,3-d]pyrimidine-2,4(1H,3H)-dione], for which the pIC50 was 8.15. Turning to `Cc1c(CN2CCNC2=S)sc2c1c(=O)n(CC(F)(F)F)c(=O)n2CC1CCCO1` (racemic) [Example 157, 5-Methyl-1-(tetrahydrofuran-2-ylmethyl)-6-[(2-thioxoimidazolidin-1-yl)methyl]-3-(2,2,2-trifluoroethyl)thieno[2,3-d]pyrimidine-2,4(1H,3H)-dione], the negative logarithm of the IC50 (pIC50) was 8.24. In the case of `Cc1c(CN2CCNC2=S)sc2c1c(=O)n(CC(F)F)c(=O)n2CC1CCCO1` (racemic) [Example 162, 3-(2,2-Difluoroethyl)-5-methyl-1-(tetrahydrofuran-2-ylmethyl)-6-[(2-thioxoimidazolidin-1-yl)methyl]thieno[2,3-d]pyrimidine-2,4(1H,3H)-dione] it was 8.10. To `CCn1c(=O)c2c(C)c(CN3CCN(C(C)C)C3=S)sc2n(CC2CCCO2)c1=O` (racemic) [Example 175, 3-Ethyl-6-[(3-isopropyl-2-thioxoimidazolidin-1-yl)methyl]-5-methyl-1-(tetrahydrofuran-2-ylmethyl)thieno[2,3-d]pyrimidine-2,4(1H,3H)-dione] belongs 7.28; to `Cc1c(CN2CCNC2=O)sc2c1c(=O)n(C(C)C)c(=O)n2CC1CCO1` (racemic) [Example 183, 3-Isopropyl-5-methyl-1-(oxetan-2-ylmethyl)-6-[(2-oxoimidazolidin-1-yl)methyl]thieno[2,3-d]pyrimidine-2,4(1H,3H)-dione], 7.77; to `Cc1c(CN2CCNC2=O)sc2c1c(=O)n(C(C)C)c(=O)n2CC1CCCO1` (racemic) [Example 186, 3-Isopropyl-5-methyl-6-[(2-oxoimidazolidin-1-yl)methyl]-1-(tetrahydrofuran-2-ylmethyl)thieno[2,3-d]pyrimidine-2,4(1H,3H)-dione], 7.89. Turning to `CCC(C)n1c(=O)c2c(C)c(CN3CCNC3=O)sc2n(CCOC)c1=O` (racemic) [Example 190, 3-sec-Butyl-1-(2-methoxyethyl)-5-methyl-6-[(2-oxoimidazolidin-1-yl)methyl]thieno[2,3-d]pyrimidine-2,4(1H,3H)-dione], the negative logarithm of the IC50 (pIC50) was 7.42.

Values taken from US10428083B2, “Heterocyclylmethyl-thienouracile as antagonists of the adenosine-A2B-receptor” (BAYER PHARMA AKTIENGESELLSCHAFT, priority 2015, dated 2019).
